Experimental data: patent US20100075334A1, “METHYLATION BIOMARKER FOR EARLY DETECTION OF GASTRIC CANCER” (priority 2007, published 2010)

Test system: gastric cancer cell lines, SNU001, SNU601, and SNU668
Assay: Reactivation analysis of silenced genes by drug treatment (RT-PCR)
Type: cell-based, human
Details: for number of selected genes restored (summary): 5-aza and/or TSA treatment, of 26 epigenetic targets; for number of selected genes restored in the corresponding inactivated cells: after 5-Aza-dC and/or TSA treatment, gene-specific or cell-specific mode
Method: To examine the correspondence between NotI-methylation and gene silencing at the neighboring region of the NotI site, RT-PCR analysis was performed for each selected gene with RNA of gastric cancer cell line. Reverse transcription using 5 μg of DNase-treated RNA was done using Superscript II reverse transcriptase (Invitrogen) in a reaction volume of 20 μL. One μL of the reverse transcription reaction was used for amplification using Platinum Taq DNA polymerase (Invitrogen). Amplification was done as follows: denaturation at 94° C. for 30 s, annealing at a primer specific annealing temperature for 30 s and extension at 72° C. for 45 s. All reactions were performed on a GeneAmp PCR System 9700 (Perkin-Elmer Corp.). Five μL of the PCR product were run on a 0.8% agarose gel and visualized by EtBr staining. GAPDH gene was used as a control for comparison of the amount of reverse transcribed template in each sample.
Three gastric cancer cell lines, SNU001, SNU601, and SNU668, were treated with 5-aza-2′-deoxycytidine (5-Aza-dC; Sigma) as a demethylating agent and 5-Aza-dC and trichostatin A (TSA; Sigma) as a HDAC inhibitor to examine the restoring of selected genes in those cells. Each cell was plated at a density of 1×10^5 cells/100-mm dish and cultures for 24 h, followed by 72 h culture with 1 μM 5-Aza-dC. Other cells were also followed by 24 h culture with 250 nM TSA or 72 h 5-Aza-dC-treated cells for another 24 h. RNA was prepared and RT-PCR analysis was then performed using gene-specific primer set as described above. GAPDH gene was also used as a control.
For the selected 22 genes, reactivation analysis was examined in three gastric cancer cell lines by 5-Aza-dC and/or TSA treatment.

| Structure (SMILES) | number of selected genes restored (summary) | number of selected genes restored in the corresponding inactivated cells | restoration of expression of POPDC3, NACM2, PRKD1 and AMPD3 (three gastric cancer cell lines, 1 μM 5-Aza-dC 72 h, RT-PCR, restored only by 5-Aza-dC) |
| --- | --- | --- | --- |
| CC(/C=C/C(=O)NO)=C\[C@@H](C)C(=O)c1ccc(N(C)C)cc1 [TSA, trichostatin A] | 23 of 26 | 22 genes | – |
| Nc1ncn([C@H]2C[C@H](O)[C@@H](CO)O2)c(=O)n1 [5-Aza-dC, 5-aza-2′-deoxycytidine] | 23 of 26 | 22 genes | restored in two or three corresponding inactivated cells |
